From US9212182B2, “Bicyclic sulfonamide compounds as sodium channel inhibitors” (AMGEN INC., priority 2013, dated 2015)
Where two headings read alike, the source gives them in different places.

Target: Nav 1.7 (Homo sapiens (Human), UniProt Q15858)
Experiment: in-vitro Nav 1.7 PX (IC50)
Type: cell-based

Nav 1.7, sequence (Q15858 whole entry): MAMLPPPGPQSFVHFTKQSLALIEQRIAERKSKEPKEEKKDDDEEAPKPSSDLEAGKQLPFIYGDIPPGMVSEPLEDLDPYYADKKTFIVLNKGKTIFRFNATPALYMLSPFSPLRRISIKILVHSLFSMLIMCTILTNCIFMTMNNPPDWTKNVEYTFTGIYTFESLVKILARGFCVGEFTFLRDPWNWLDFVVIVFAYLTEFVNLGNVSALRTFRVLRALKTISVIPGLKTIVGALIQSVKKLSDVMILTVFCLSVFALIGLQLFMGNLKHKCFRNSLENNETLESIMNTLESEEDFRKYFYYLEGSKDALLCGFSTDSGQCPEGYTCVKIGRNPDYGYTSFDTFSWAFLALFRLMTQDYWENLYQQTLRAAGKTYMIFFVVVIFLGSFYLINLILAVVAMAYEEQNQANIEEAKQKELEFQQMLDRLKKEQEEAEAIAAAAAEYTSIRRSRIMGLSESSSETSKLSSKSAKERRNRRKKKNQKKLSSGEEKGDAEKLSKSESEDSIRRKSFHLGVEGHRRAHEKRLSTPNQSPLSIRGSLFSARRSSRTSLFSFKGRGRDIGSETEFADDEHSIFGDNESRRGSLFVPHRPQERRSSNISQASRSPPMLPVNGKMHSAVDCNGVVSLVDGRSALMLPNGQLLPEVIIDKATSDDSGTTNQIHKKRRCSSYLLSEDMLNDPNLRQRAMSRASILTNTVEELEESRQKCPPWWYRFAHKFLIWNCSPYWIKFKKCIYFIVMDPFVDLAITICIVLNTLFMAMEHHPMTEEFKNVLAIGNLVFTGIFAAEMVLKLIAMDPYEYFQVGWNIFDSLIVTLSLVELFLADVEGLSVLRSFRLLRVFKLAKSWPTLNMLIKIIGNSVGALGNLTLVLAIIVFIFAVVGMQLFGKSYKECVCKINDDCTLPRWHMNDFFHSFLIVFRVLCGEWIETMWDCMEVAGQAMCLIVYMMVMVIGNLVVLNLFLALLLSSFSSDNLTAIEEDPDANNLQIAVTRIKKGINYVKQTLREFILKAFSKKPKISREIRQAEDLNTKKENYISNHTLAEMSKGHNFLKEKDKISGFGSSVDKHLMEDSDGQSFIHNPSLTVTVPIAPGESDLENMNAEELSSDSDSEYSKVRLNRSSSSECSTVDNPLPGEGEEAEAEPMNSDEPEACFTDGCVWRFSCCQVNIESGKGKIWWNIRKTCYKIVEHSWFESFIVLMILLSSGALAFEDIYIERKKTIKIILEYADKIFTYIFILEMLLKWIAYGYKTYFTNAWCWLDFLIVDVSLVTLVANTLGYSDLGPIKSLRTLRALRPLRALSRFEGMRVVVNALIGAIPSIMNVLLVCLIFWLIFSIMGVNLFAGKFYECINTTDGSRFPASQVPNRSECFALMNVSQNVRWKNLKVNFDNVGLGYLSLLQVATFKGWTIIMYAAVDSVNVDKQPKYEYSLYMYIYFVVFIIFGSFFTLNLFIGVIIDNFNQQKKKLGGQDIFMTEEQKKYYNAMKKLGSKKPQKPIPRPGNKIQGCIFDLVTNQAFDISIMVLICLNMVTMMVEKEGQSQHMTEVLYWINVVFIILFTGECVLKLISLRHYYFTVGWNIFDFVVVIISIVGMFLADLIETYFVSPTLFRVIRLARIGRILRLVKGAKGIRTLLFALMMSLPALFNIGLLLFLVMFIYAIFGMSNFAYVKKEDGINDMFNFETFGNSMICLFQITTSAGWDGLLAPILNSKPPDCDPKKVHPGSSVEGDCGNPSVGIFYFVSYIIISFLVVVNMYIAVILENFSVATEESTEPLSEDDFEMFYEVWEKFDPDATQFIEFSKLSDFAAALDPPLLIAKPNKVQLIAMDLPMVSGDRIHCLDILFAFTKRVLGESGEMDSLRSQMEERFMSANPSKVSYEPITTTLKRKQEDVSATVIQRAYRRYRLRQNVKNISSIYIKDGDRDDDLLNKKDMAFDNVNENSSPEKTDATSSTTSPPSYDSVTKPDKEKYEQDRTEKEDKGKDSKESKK

COc1cc(-c2ccc(-n3c(=O)cnc4cc(S(=O)(=O)Nc5ccon5)ccc43)c(OC)c2)ccc1C [Example 1197, 1-(3,3′-dimethoxy-4′-methyl-4-biphenylyl)-N-3-isoxazolyl-2-oxo-1,2-dihydro-6-quinoxalinesulfonamide]
IC50: 146 nM

COc1cc(Cl)c(-c2cc(F)cc(Cl)c2)cc1-n1c(=O)ccc2cc(S(=O)(=O)Nc3ccon3)ccc21 (atropisomer, axis not shown; (M)) [Example 615, (M)-1-(3′,6-dichloro-5′-fluoro-4-methoxy-3-biphenylyl)-N-3-isoxazolyl-2-oxo-1,2-dihydro-6-quinolinesulfonamide]
IC50 (in-vitro Nav 1.7 PX data): 10800 nM

COc1cc(C#CC2CC2)c(F)cc1-n1c(=O)ccc2cc(S(=O)(=O)Nc3ccon3)ccc21 [Example 1130, 1-(4-(cyclopropylethynyl)-5-fluoro-2-methoxyphenyl)-N-3-isoxazolyl-2-oxo-1,2-dihydro-6-quinolinesulfonamide]
IC50 (in-vitro Nav 1.7 PX data): 209 nM

COc1cc(-c2cc(F)c(F)cc2F)c(F)cc1-n1c(=O)ccc2cc(S(=O)(=O)Nc3ccon3)ccc21 (atropisomer, axis not shown; (P)) [Example 516, (P)—N-3-isoxazolyl-2-oxo-1-(2,2′,4′,5′-tetrafluoro-5-methoxy-4-biphenylyl)-1,2-dihydro-6-quinolinesulfonamide]
IC50 (in-vitro PatchXpress (PX)): > 10000 nM

COc1cc(-c2cccc(C(F)(F)F)c2)ccc1-n1c(=O)ccc2cc(S(=O)(=O)Nc3cc(C)cnn3)ccc21 [Example 1137, 1-(3-methoxy-3′-(trifluoromethyl)-4-biphenylyl)-N-(5-methyl-3-pyridazinyl)-2-oxo-1,2-dihydro-6-quinolinesulfonamide]
IC50 (in-vitro Nav 1.7 PX data): 36 nM

COc1cc(-c2cc(Cl)ccc2F)c(F)cc1-n1c(=O)ccc2cc(S(=O)(=O)Nc3ccon3)ccc21 [Example 707, 1-(5′-chloro-2,2′-difluoro-5-methoxy-4-biphenylyl)-N-3-isoxazolyl-2-oxo-1,2-dihydro-6-quinolinesulfonamide]
IC50 (in-vitro Nav 1.7 PX data): 12 nM

COc1cc(F)cc(-c2ccc(-n3c(=O)ccc4cc(S(=O)(=O)Nc5ncco5)ccc43)c(OC)c2)c1 [Example 1005, 1-(3′-fluoro-3,5′-dimethoxy-4-biphenylyl)-N-1,3-oxazol-2-yl-2-oxo-1,2-dihydro-6-quinolinesulfonamide]
IC50 (in-vitro Nav 1.7 PX data): 268 nM

1-(3′-(difluoromethoxy)-2-fluoro-5-methoxy-4-biphenylyl)-N-(5-fluoro-2-pyrimidinyl)-2-oxo-1,2-dihydro-6-quinolinesulfonamide [Example 907]
IC50 (in-vitro Nav 1.7 PX data): 191 nM

COc1ccc(-c2cc(F)cc(Cl)c2)cc1-n1c(=O)ccc2cc(S(=O)(=O)Nc3ccncn3)ccc21 [Example 610, 1-(3′-chloro-5′-fluoro-4-methoxy-3-biphenylyl)-2-oxo-N-4-pyrimidinyl-1,2-dihydro-6-quinolinesulfonamide]
IC50 (in-vitro Nav 1.7 PX data): 13 nM

COc1cc(-c2ccc(F)cc2)c(F)cc1-n1c(=O)cnc2cc(S(=O)(=O)Nc3ccon3)ccc21 [Example 1141, 1-(2,4′-difluoro-5-methoxy-4-biphenylyl)-N-3-isoxazolyl-2-oxo-1,2-dihydro-6-quinoxalinesulfonamide]
IC50: 106 nM

COc1nc(OCc2cc(F)c(F)c(F)c2)c(Cl)cc1-n1c(=O)ccc2cc(S(=O)(=O)Nc3ccon3)ccc21 [Example 1218, 1-(5-chloro-2-methoxy-6-((3,4,5-trifluorobenzyl)oxy)-3-pyridinyl)-N-3-isoxazolyl-2-oxo-1,2-dihydro-6-quinolinesulfonamide]
IC50: 39 nM

COc1cc(-c2ccc(OC(F)F)cc2)c(F)cc1-n1c(=O)ccc2cc(S(=O)(=O)Nc3ccon3)ccc21 [Example 763, 1-(4′-(difluoromethoxy)-2-fluoro-5-methoxy-4-biphenylyl)-N-3-isoxazolyl-2-oxo-1,2-dihydro-6-quinolinesulfonamide]
IC50 (in-vitro Nav 1.7 PX data): 30 nM

COc1cc(-c2ccc(F)c(F)c2)c(F)cc1-n1c(=O)ccc2cc(S(=O)(=O)Nc3cc(C)ncn3)ccc21 [Example 938, N-(6-methyl-4-pyrimidinyl)-2-oxo-1-(2,3′,4′-trifluoro-5-methoxy-4-biphenylyl)-1,2-dihydro-6-quinolinesulfonamide]
IC50 (in-vitro Nav 1.7 PX data): 47 nM

COc1cc(-c2cccc(OC(C)C)c2)ccc1-n1c(=O)ccc2cc(S(=O)(=O)Nc3cccnn3)ccc21 (atropisomer, axis not shown; (P)) [Example 1207, (P)-1-(3-methoxy-3′-(1-methylethoxy)-4-biphenylyl)-2-oxo-N-3-pyridazinyl-1,2-dihydro-6-quinolinesulfonamide]
IC50: 109 nM

COc1cc(-c2cc(C)cc(Cl)c2)c(F)cc1-n1c(=O)ccc2cc(S(=O)(=O)Nc3ccon3)ccc21 (atropisomer, axis not shown; (P)) [Example 506, (P)-1-(3′-chloro-2-fluoro-5-methoxy-5′-methyl-4-biphenylyl)-N-3-isoxazolyl-2-oxo-1,2-dihydro-6-quinolinesulfonamide]
IC50 (in-vitro PatchXpress (PX)): 8 nM

COc1nc(-c2cc(F)cc(F)c2)c(Cl)cc1-n1c(=O)ccc2cc(S(=O)(=O)Nc3ccon3)ccc21 (atropisomer, axis not shown; (P)) [Example 665, (P)-1-(5-chloro-6-(3,5-difluorophenyl)-2-methoxy-3-pyridinyl)-N-3-isoxazolyl-2-oxo-1,2-dihydro-6-quinolinesulfonamide]
IC50 (in-vitro Nav 1.7 PX data): 15 nM

COc1cc(-c2ccc(Cl)cc2C)c(F)cc1-n1c(=O)ccc2cc(S(=O)(=O)Nc3ccon3)ccc21 [Example 742, 1-(4′-chloro-2-fluoro-5-methoxy-2′-methyl-4-biphenylyl)-N-3-isoxazolyl-2-oxo-1,2-dihydro-6-quinolinesulfonamide]
IC50 (in-vitro Nav 1.7 PX data): 7 nM

COc1cc(-c2cccc(Cl)c2)c(C)cc1-n1c(=O)ccc2cc(S(=O)(=O)Nc3ccon3)ccc21 (atropisomer, axis not shown; (M)) [Example 313, (M)-1-(3′-chloro-5-methoxy-2-methyl-4-biphenylyl)-N-3-isoxazolyl-2-oxo-1,2-dihydro-6-quinolinesulfonamide]
IC50: 799 nM

COc1nc(-c2cccc(C#N)c2)c(Cl)cc1-n1c(=O)ccc2cc(S(=O)(=O)Nc3ccon3)ccc21 [Example 1090, 1-(5-chloro-6-(3-cyanophenyl)-2-methoxy-3-pyridinyl)-N-3-isoxazolyl-2-oxo-1,2-dihydro-6-quinolinesulfonamide]
IC50 (in-vitro Nav 1.7 PX data): 201 nM

COc1ccc(-c2cccc(F)c2)cc1-n1c(=O)ccc2cc(S(=O)(=O)Nc3ccon3)ccc21 [Example 482, 1-(3′-fluoro-4-methoxy-3-biphenylyl)-N-3-isoxazolyl-2-oxo-1,2-dihydro-6-quinolinesulfonamide]
IC50: 80 nM

COc1cncc(-c2cc(OC)c(-n3c(=O)ccc4cc(S(=O)(=O)Nc5ccon5)ccc43)cc2F)c1 [Example 738, 1-(5-fluoro-2-methoxy-4-(5-methoxy-3-pyridinyl)phenyl)-N-3-isoxazolyl-2-oxo-1,2-dihydro-6-quinolinesulfonamide]
IC50 (in-vitro Nav 1.7 PX data): 1230 nM

COc1cc(-c2cncc(Cl)c2)c(F)cc1-n1c(=O)ccc2cc(S(=O)(=O)Nc3ccon3)ccc21 [Example 407, 1-(4-(5-chloro-3-pyridinyl)-5-fluoro-2-methoxyphenyl)-N-3-isoxazolyl-2-oxo-1,2-dihydro-6-quinolinesulfonamide]
IC50 (in-vitro PatchXpress (PX)): 158 nM

COc1cc(-c2ccc(C(F)(F)F)cc2)c(F)cc1-n1c(=O)ccc2cc(S(=O)(=O)Nc3ncco3)ccc21 (atropisomer, axis not shown; (P)) [Example 636, (P)-1-(2-fluoro-5-methoxy-4′-(trifluoromethyl)-4-biphenylyl)-N-1,3-oxazol-2-yl-2-oxo-1,2-dihydro-6-quinolinesulfonamide]
IC50: 31 nM

COc1cc(-c2cccnc2C)c(F)cc1-n1c(=O)ccc2cc(S(=O)(=O)Nc3ccon3)ccc21 [Example 737, 1-(5-fluoro-2-methoxy-4-(2-methyl-3-pyridinyl)phenyl)-N-3-isoxazolyl-2-oxo-1,2-dihydro-6-quinolinesulfonamide]
IC50 (in-vitro Nav 1.7 PX data): 1250 nM

COc1cc(-c2ccc(C(F)(F)F)nc2)c(F)cc1-n1c(=O)ccc2cc(S(=O)(=O)Nc3ccon3)ccc21 [Example 761, 1-(5-fluoro-2-methoxy-4-(6-(trifluoromethyl)-3-pyridinyl)phenyl)-N-3-isoxazolyl-2-oxo-1,2-dihydro-6-quinolinesulfonamide]
IC50 (in-vitro Nav 1.7 PX data): 120 nM

COc1cc(-c2cnc(C)c(Cl)c2)c(F)cc1-n1c(=O)ccc2cc(S(=O)(=O)Nc3ccon3)ccc21 [Example 532, 1-(4-(5-chloro-6-methyl-3-pyridinyl)-5-fluoro-2-methoxyphenyl)-N-3-isoxazolyl-2-oxo-1,2-dihydro-6-quinolinesulfonamide]
IC50 (in-vitro PatchXpress (PX)): 282 nM

COc1cc(-c2cc(C)ccc2Cl)ccc1-n1c(=O)ccc2cc(S(=O)(=O)Nc3ccon3)ccc21 [Example 1030, 1-(2′-chloro-3-methoxy-5′-methyl-4-biphenylyl)-N-3-isoxazolyl-2-oxo-1,2-dihydro-6-quinolinesulfonamide]
IC50 (in-vitro Nav 1.7 PX data): 12 nM

COc1cc(C#CC2CCCC2)c(F)cc1-n1c(=O)ccc2cc(S(=O)(=O)Nc3ncccn3)ccc21 [Example 1134, 1-(4-(cyclopentylethynyl)-5-fluoro-2-methoxyphenyl)-2-oxo-N-2-pyrimidinyl-1,2-dihydro-6-quinolinesulfonamide]
IC50 (in-vitro Nav 1.7 PX data): 26 nM

COc1cc(-c2cccc(F)c2)c(Cl)cc1-n1c(=O)ccc2cc(S(=O)(=O)Nc3ncccn3)ccc21 (atropisomer, axis not shown; (P)) [Example 355, (P)-1-(2-chloro-3′-fluoro-5-methoxy-[1,1′-biphenyl]-4-yl)-2-oxo-N-(pyrimidin-2-yl)-1,2-dihydroquinoline-6-sulfonamide]
IC50: 31 nM

COc1ccc(-c2cc(OC)c(-n3c(=O)ccc4cc(S(=O)(=O)Nc5ccon5)ccc43)cc2F)c(Cl)c1 [Example 699, 1-(2′-chloro-2-fluoro-4′,5-dimethoxy-4-biphenylyl)-N-3-isoxazolyl-2-oxo-1,2-dihydro-6-quinolinesulfonamide]
IC50 (in-vitro Nav 1.7 PX data): 37 nM

COc1cc(-c2cccc(C)c2)c(F)cc1-n1c(=O)ccc2cc(S(=O)(=O)Nc3ncon3)ccc21 [Example 1114, 1-(2-fluoro-5-methoxy-3′-methyl-4-biphenylyl)-N-1,2,4-oxadiazol-3-yl-2-oxo-1,2-dihydro-6-quinolinesulfonamide]
IC50 (in-vitro Nav 1.7 PX data): 35 nM
